ChEMBL document CHEMBL1177659, “Structure-based virtual screening, synthesis and SAR of novel inhibitors of hepatitis C virus NS5B polymerase” (Bioorg Med Chem, 2010)

Experiments:
[1] = Inhibition of His-tagged recombinant NS5B Cdelta 21 polymerase expressed in Escherichia coli DH5alpha by standard primer dependent elongation assay; set-up: species or system Hepacivirus hominis
Hepacivirus hominis = assay: Inhibition of His-tagged recombinant NS5B Cdelta 21 polymerase expressed in Escherichia coli DH5alpha at 250 uM by standard primer dependent elongation assay relative to control

| Compound | IC50 [1] [µM] | inhibition (Hepacivirus hominis) [%] |
| --- | --- | --- |
| O=C(O)CN1C(=O)/C(=C/c2cccc(Br)c2)SC1=S | 20.2 |  |
| O=C(O)CN1C(=O)/C(=C/c2ccc(F)cc2)SC1=S | 42.1 |  |
| O=C(O)C(Cc1ccccc1)N1C(=O)/C(=C/c2ccc(Cl)cc2Cl)SC1=S (centres undefined) | 10.6 |  |
| CC(C)C(C(=O)O)N1C(=O)/C(=C/c2ccc(F)cc2)SC1=S (centres undefined) | 42.9 |  |
| O=C1/C(=C/c2ccc(Cl)c(Cl)c2)SC(=S)N1NS(=O)(=O)c1ccccc1 | 0.2 |  |
| O=C(O)CN1C(=O)/C(=C/c2ccc(Cl)c(Cl)c2)SC1=S | 8.4 |  |
| O=C(O)CCCCCN1C(=O)/C(=C/c2ccc(Cl)cc2Cl)SC1=S | 16.1 |  |
| O=C(O)CN1C(=O)/C(=C/c2ccc([N+](=O)[O-])cc2)SC1=S | 21.9 |  |
| O=C1/C(=C/c2ccc(Cl)cc2Cl)SC(=S)N1CCS(=O)(=O)O | 23.5 |  |
| O=C(O)CN1C(=O)/C(=C/c2cccc(C(F)(F)F)c2)SC1=S | 50.9 |  |
| CC(C)C(C(=O)O)N1C(=O)/C(=C/c2ccc(Cl)cc2Cl)SC1=S (centres undefined) | 14.1 |  |
| O=C(O)CN1C(=O)/C(=C/c2cccc3ccccc23)SC1=S | 61.4 |  |
| O=c1oc2ccccc2c2c1ncn2-c1ccccc1 | 60.2 | 62.5 |
| O=C(O)CN1C(=O)/C(=C/c2cccc(Oc3ccccc3)c2)SC1=S | 7.7 |  |
| CCc1ccc(/C=C2\SC(N[C@@H](C(=O)O)c3ccc(F)cc3)=NC2=O)o1 (stereo in doubt) [VALEANT] | 3 |  |
| CC(C)CC(C(=O)O)N1C(=O)/C(=C/c2ccc(Cl)cc2Cl)SC1=S (centres undefined) | 18.9 |  |
| O=C(O)CN1C(=O)/C(=C/c2ccccc2[N+](=O)[O-])SC1=S | 16.2 |  |
| CC(C)C(C(=O)O)N1C(=O)/C(=C/c2cccc3ccccc23)SC1=S (centres undefined) | 16.9 |  |
| O=C(O)CCCN1C(=O)/C(=C/c2ccc(Cl)cc2Cl)SC1=S | 58 |  |
| N#Cc1nc(-c2ccccc2)c(-c2ccccc2)nc1C#N | 250 | 48.6 |
| O=C(O)c1ccc2c(c1)C(=O)N(c1cccc(O)c1)C2=O | 200 | 55 |
| CSCCC(C(=O)O)N1C(=O)/C(=C/c2ccc(Cl)cc2Cl)SC1=S (centres undefined) | 29.2 |  |
| CC(C(=O)O)N1C(=O)/C(=C/c2cccc3ccccc23)SC1=S (centres undefined) | 68.1 |  |
| CC(C(=O)O)N1C(=O)/C(=C/c2ccc(Cl)cc2Cl)SC1=S (centres undefined) | 13.3 |  |
| CC(C)C(C(=O)O)N1C(=O)/C(=C/c2ccccc2Cl)SC1=S (centres undefined) | 36.1 |  |
| O=C(O)CN1C(=O)/C(=C/c2ccc(Cl)cc2Cl)SC1=S | 17.9 |  |
| O=C(O)CN1C(=O)/C(=C/c2cccc(Cl)c2)SC1=S | 18.4 |  |
| O=C(O)CCN1C(=O)/C(=C/c2ccc(Cl)cc2Cl)SC1=S | 19.9 |  |
| O=C(O)CN1C(=O)/C(=C/c2ccc(C(F)(F)F)cc2)SC1=S | 55.2 | 71 |
| CCCC(C(=O)O)N1C(=O)/C(=C/c2ccc(Cl)cc2Cl)SC1=S (centres undefined) | 28.2 |  |
